Series [1] has as its system several cell lines. Further details: method as in Canale et al., 2021. To be noted: ref Canale et al., 2021; cited from earlier work.
Series [2] concerns the target T1, hH1R (Homo sapiens, UniProt P35367).
T1 construct: expressed in transfected cells; host or cells: CHO K1 cells
Description: hH1R radioligand binding, [3H]pyrilamine in CHO K1 cells. To be noted: protocol of Lazewska et al., 2017.

Details of series [3]: method as in Szafarz et al., 2015. To be noted: ref Szafarz et al., 2015, cited from earlier work.
In series [4] the test system is H3R. Set-up: method as in Lazewska et al. (2006). The note with it: after p.o. administration to mice; ref Lazewska et al. (2006); cited from earlier work.
In series [5] the test system is C57/B6 mouse embryos. The experiment in a line: Skeletal malformations (double staining of fetuses). The class given is in vivo, C57BL/6J mice. The source says:
After isolating fetuses from viscera and skin, they underwent a fat-removal process by immersion in acetone for 1–3 days. The resulting transparent specimens underwent a sequence of glycerin solutions (50% and 80%) before being finally stored in 100% glycerin for observation of malformations using a stereo dissecting microscope ([McLeod, 1980]; [Sterz and Lehmann, 1985]; [Abdulrazzaq et al., 1997]; [Bass et al., 2020]). Following this, specimens were processed and stained with Alizarin Red-S and Alcian blue ([McLeod, 1980]; [Sterz and Lehmann, 1985]; [Abdulrazzaq et al., 1997]; [Bass et al., 2020]) to identify bone and cartilage deformities.
Statistical analyses employed SPSS 26.0 (IBM Middle East, Dubai, UAE). Data were presented as means ± SEM. […] Fetal abnormality data were presented as counts and percentages. Fisher’s exact test compared the percentages of abnormalities between the control group (saline) and the different dose groups. All tests were two-tailed, and significance was set at p < 0.05.

The target in series [6] is hH4R. Further details: method as in Lazewska et al. (2020) and Canale et al. (2021). The note with it: Sf9 cells; [3H]histamine; ref Lazewska et al. (2020) and Canale et al. (2021); cited from earlier work.
In series [7] the target is T2, hN neuronal α4β2 (Homo sapiens, UniProt P17787+P43681).
T2 construct: host or cells: SH-SY5Y cells
Description: hN neuronal α4β2 binding, [3H]cystine in SH-SY5Y cells (Eurofins Cerep).

In series [8] the target is hH3R. Further details: method as in Lazewska et al. (2006). To be noted: CHO K1 cells; [125I]Iodoproxyfan binding assay; ref Lazewska et al. (2006); cited from earlier work.

Like-named read-outs stand apart in the source and are kept apart here.

T2 sequence (P43681 29-627 limits assumed): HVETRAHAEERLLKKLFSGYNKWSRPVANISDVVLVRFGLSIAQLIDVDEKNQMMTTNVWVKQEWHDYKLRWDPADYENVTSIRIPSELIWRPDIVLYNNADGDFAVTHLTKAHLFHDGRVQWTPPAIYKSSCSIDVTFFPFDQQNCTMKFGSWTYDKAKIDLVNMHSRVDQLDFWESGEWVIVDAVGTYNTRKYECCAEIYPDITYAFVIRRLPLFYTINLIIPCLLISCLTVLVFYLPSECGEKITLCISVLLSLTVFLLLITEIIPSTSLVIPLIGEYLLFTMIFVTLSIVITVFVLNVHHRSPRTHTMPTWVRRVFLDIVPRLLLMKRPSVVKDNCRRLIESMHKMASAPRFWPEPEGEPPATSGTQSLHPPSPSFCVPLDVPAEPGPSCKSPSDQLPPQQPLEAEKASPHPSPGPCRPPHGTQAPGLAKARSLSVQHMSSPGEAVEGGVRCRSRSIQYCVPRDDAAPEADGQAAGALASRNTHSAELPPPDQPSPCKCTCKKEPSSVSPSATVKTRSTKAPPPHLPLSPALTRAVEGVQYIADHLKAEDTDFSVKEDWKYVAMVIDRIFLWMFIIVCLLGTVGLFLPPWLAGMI
T2 sequence (P17787 26-502): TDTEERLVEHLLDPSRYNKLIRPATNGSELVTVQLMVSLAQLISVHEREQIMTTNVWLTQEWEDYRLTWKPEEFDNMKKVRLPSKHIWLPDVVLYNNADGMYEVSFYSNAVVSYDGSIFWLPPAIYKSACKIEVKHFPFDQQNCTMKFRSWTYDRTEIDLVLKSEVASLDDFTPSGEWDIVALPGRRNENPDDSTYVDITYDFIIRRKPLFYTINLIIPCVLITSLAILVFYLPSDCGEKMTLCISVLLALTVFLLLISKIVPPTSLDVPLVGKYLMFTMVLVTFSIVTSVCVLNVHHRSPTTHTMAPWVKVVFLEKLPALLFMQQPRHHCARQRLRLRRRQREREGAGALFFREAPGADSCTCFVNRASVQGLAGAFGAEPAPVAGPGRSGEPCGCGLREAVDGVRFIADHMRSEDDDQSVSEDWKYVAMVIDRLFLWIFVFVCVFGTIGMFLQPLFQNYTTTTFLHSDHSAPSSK
T1 sequence (P35367 whole entry): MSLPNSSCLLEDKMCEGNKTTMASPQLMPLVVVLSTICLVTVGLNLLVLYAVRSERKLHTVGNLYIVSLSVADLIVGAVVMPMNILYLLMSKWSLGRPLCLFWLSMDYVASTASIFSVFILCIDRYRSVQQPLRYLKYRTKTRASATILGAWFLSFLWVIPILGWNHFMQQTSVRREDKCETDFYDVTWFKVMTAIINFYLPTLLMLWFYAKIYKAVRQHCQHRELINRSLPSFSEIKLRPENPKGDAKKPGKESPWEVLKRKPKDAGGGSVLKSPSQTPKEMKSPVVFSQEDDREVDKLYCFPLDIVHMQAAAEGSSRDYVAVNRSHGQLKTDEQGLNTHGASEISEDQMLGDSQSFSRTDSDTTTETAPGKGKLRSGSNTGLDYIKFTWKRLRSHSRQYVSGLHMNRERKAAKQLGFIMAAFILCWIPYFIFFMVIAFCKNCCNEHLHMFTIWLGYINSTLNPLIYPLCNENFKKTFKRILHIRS

As for `CC(C)(C)c1ccc(OCCCN2CCCCC2)cc1` [DL76, 1-(3-(4-tert-butyl-phenoxy)propyl) piperidine], the in vitro toxicity entry in series [1] is “without inducing in vitro toxicity”. Also, the Ki was 849 ± 67 nM in series [2], 66 µM in series [6] and 22 nM in series [8]. The “AUC0→∞” value in series [3] (dose 3 mg/kg) was 298 ng◦h/mL; in series [3] (dose 6 mg/kg), 685 ng◦h/mL. The figures for the C0 in series [3] (dose 3 mg/kg) and in series [3] (dose 6 mg/kg) were 564 ng/mL and 653 ng/mL, respectively. Moreover, in series [3] (experimental animals), the “concentrations in cortex, hippocampus and striatum higher than in whole brain tissues” value was 44%. Also, the “ED50, in vivo H3R antagonist potency” value in series [4] is recorded as 2.8 ± 0.4 mg/kg. In addition, the femur length result is on record as “significantly decreased” in series [5] (7.5 mg/kg and 60 mg/kg groups); “non-significant decrease” in series [5] (30 mg/kg group, p = 0.06). The “tibia and fibula lengths vs controls” value in series [5] (7.5 mg/kg, 30 mg/kg and 60 mg/kg groups) was “significantly decreased”. Besides, in series [5] (7.5 mg/kg-, 30 mg/kg- and 60 mg/kg-treated groups), the “mean crown-to-rump length vs control groups” value is on record as “decreased significantly”. In series [5] (30 mg/kg and 60 mg/kg groups), the “humerus and ulna lengths” value is on record as “reduced”. For the same compound, in series [5] (30 mg/kg group only), the radius length entry is “significant decrease”. Moreover, in series [5] (DL76-treated group), the “incidence of lumbar ribs vs saline-treated control” value is listed as “not significantly different”. Further, the “fifth sternebrium, absence or occurrence of hypoplasia, vs control” value in series [5] (DL76-treated groups) was “no significant difference”. In addition, the “skull or facial bones” value in series [5] (all groups) is “No significant differences”. For the same compound, the “vertebrae: number of centra or number of unossified/hypoplastic bodies” value in series [5] (all the DL-76-treated groups) was “no differences”. For the same compound, in series [5] (higher doses of 30 mg/kg, 60 mg/kg and 15 mg/kg × 3), the “crown–rump length and lengths of the long bones of the extremities” value is listed as “seemed to be affected”. In series [7], at 1 µM the inhibition was 3%.

The Ki is a measure of affinity in units of concentration, obtained from inhibition or displacement. In general, inhibition refers to the share of the control response that was lost under treatment. A low value points to a response near the control.

These data come from PMC11188305, “Reproductive and fetal toxicity studies of histamine H3 receptor antagonist DL76 used in mice to prevent maximal electroshock-induced seizure” (Frontiers in Pharmacology, 2024).
